Here are results for seven molecules from patent publication US4772595A, “Synthetic virginiamycin M1 analogs” (Merck & Co., Inc., priority 1986, dated 1988).

In experiment [1] the test system is CCK and gastrin receptors. Nature of the experiment: Binding to both CCK and gastrin receptors (summary statement). The settings on record: summary in words. The method, then: Biological activity of virginiamycin M1 and the compounds of Formulae I, II, III and IV is determined by gastrin receptor binding, pancreas CCK receptor binding, brain CCK binding and microbial growth inhibition assays.

Another experiment deals with T1, Brain CCK Receptor (Cavia porcellus, UniProt H0VZC5).
T1 construct: The cerebral cortex was dissected and used as a receptor source; from tissue; host or cells: cerebral cortex membranes of male Hartley guinea pigs
T1 sequence (H0VZC5 1-426): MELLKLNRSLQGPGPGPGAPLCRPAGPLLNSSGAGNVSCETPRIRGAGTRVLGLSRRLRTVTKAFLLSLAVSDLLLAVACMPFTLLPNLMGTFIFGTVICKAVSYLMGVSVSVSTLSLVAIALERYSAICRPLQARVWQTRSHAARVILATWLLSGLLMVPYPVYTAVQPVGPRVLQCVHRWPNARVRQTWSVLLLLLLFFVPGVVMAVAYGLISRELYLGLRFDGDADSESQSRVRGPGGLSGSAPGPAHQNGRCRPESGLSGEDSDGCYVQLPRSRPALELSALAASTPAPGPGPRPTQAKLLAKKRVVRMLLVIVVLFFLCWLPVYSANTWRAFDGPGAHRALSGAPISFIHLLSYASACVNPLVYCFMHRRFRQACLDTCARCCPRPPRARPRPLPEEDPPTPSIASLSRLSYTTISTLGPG
The experiment in a line: Brain Cholecystokinin Receptor Binding Assay (cerebral cortex). The settings on record: guinea pig cerebral cortex, 125I-CCK-8, 25° C., 2 hours. The method, then: CCK-8 binding was performed according to the description for the pancreatic method, with modifications by Saito et al., J. Neurochem., 37, 483 (1981).
The brains from male Hartley guinea pigs (300-500 g) were removed and placed in ice-cold 50 mM Tris HCl plus 7.58 g/L Trizma-7.4 [pH 7.4 at 25° C.]. The cerebral cortex was dissected and used as a receptor source and each gram of fresh guinea pig brain tissue was homogenized in 10 ml of Tris/Trizma buffer, pH 7.4, with a Brinkmann polytron PT-10. The homogenates were centrifuged at 42,000×g for 15 minutes, then the resulting pellets were resuspended in 200 volumes of binding assay buffer (10 mM N-2-hydroxy-ethyl-piperazine-N'-2-ethane-sulfonic acid (HEPES), pH 7.7 at 25° C., MgCl2, 1 mM ethylene glycol-bis-(β-amino-ethyl-ether-N,N'-tetraacetic acid (EGTA), 0.4% BSA and 0.25 mg/ml bacitracin, pH 6.5).
The remainder of the binding assay method was as described for the pancreatic method, Example 6, except that the reaction mixtures were incubated at 25° C. for 2 hours before filtration and the filters were washed with HEPES buffer.

The test system of another experiment is gram-positive bacteria. The settings on record: cited from earlier work.
The subject of a further experiment is gastric acid secretion. The settings on record: cited from earlier work.
For experiment [2] the following is noted: C-terminal octapeptide vs CCK-33; cited from earlier work.

The IC50 is the midpoint of a concentration-inhibition curve. Low readings indicate higher potency, high ones lower potency. For the molecule `CC1=C\C=C\[C@H](O)Cc2nc(co2)C(=O)N2CCC=C2C(=O)O[C@H](C(C)C)[C@H](C)/C=C/C(=O)NC\C=C\1` [Compound II], the “binding to CCK and gastrin receptors” value in experiment [1] is “bind to both CCK and gastrin receptors”. This molecule also had a half-inhibitory concentration (IC50) on Brain CCK Receptor of 6.1 nM.
Take `CC1=C\CCC(=O)Cc2nc(co2)C(=O)N2CCC=C2C(=O)O[C@H](C(C)C)[C@H](C)/C=C/C(=O)NC\C=C\1` [IV]: in experiment [1], the “binding to CCK and gastrin receptors” value is “bind to both CCK and gastrin receptors”. In addition, on Brain CCK Receptor, the IC50 came to 270 nM.
For `CC1=C\C=C\[C@@H](O)Cc2nc(co2)C(=O)N2CCC=C2C(=O)O[C@H](C(C)C)[C@H](C)/C=C/C(=O)NC\C=C\1` [Compound I], in experiment [1], the “binding to CCK and gastrin receptors” value is “bind to both CCK and gastrin receptors”. Besides, at Brain CCK Receptor, the IC50 was found to be 7.8 nM.
Turning to `CC1=C\[C@@H](O)CC(=O)Cc2nc(co2)C(=O)N2CCC=C2C(=O)O[C@H](C(C)C)[C@H](C)/C=C/C(=O)NC\C=C\1` [Virginiamycin M1], the “binding to CCK and gastrin receptors” value in experiment [1] is “bind to both CCK and gastrin receptors”. Moreover, the antibacterial specificity entry in the experiment with gram-positive bacteria is “generally specific for gram-positive bacteria and prevent cell multiplication”. In addition, the IC50 at Brain CCK Receptor worked out at 571 nM.
As for “Gastrin-17: 17-amino acid form of gastrin, C-terminal fragment of the 34-amino acid form”, the “potency relative to Gastrin-13” value with gastric acid secretion (Gastrin-17 vs Gastrin-13) is given as 2.5 times. Besides, in the experiment with gastric acid secretion (Gastrin-17 vs Gastrin-34), the “potency relative to Gastrin-34” value is 5 times.
Turning to “C-terminal octapeptide: C-terminal octapeptide has the same efficacy as CCK-33”, in experiment [2], the “efficacy relative to CCK-33” value was “same efficacy as CCK-33” and the “potency relative to CCK-33” value was “approximately ten”.
Consider `CC1=C\C=C\C(=O)Cc2nc(co2)C(=O)N2CCC=C2C(=O)O[C@H](C(C)C)[C@H](C)/C=C/C(=O)NC\C=C\1` [Compound III], for which, in experiment [1], the “binding to CCK and gastrin receptors” value is “bind to both CCK and gastrin receptors”. Besides, the IC50 at Brain CCK Receptor worked out at 13.3 nM.
